According to patent publication US20040082606A1, “Excitatory amino acid receptor antagonists” (priority 2003, published 2004):

Test system: dural protein extravasation
Experiment: Animal model of dural protein extravasation (electrical stimulation of the trigeminal ganglion, Evans Blue)
Format: in vivo
Conditions: administered orally to rats
Protocol: The following animal model may be employed to determine the ability of the compounds of Formula I or Formula Ia to inhibit protein extravasation, an exemplary functional assay of the neuronal mechanism of migraine.
A. Harlan Sprague-Dawley rats (225-325 g) or guinea pigs from Charles River Laboratories (225-325 g) are anesthetized with sodium pentobarbital intraperitoneally (65 mg/kg or 45 mg/kg respectively) and are placed in a stereotaxic frame David Kopf Instruments) with the incisor bar set at −3.5 mm for rats or −4.0 mm for guinea pigs. Following a midline sagital scalp incision, two pairs of bilateral holes are drilled through the skull (6 mm posterially, 2.0 and 4.0 mm laterally in rats; 4 mm posteriorly and 3.2 and 5.2 mm laterally in guinea pigs, all coordinates referenced to bregma). […]
D. A fluorescence microscope (Zeiss) equipped with a grating monchromator and a spectrophotometer is used to quantify the amount of Evans Blue dye in each sample. An excitation wavelength of approximately 535 nm is utilized and the emission intensity at 600 nm is determined. […] This facilitates the computer-controlled movement of the stage with fluorescence measurements at 25 points ([…]) on each dural sample. The mean and standard deviation of the measurements are determined by the computer. […]

## CCOC(=O)[C@@H]1C[C@H]2C[C@@H](CN3CC(F)(F)C[C@H]3C(=O)OCC)CC[C@H]2CN1.Cl.Cl [3S,4aR,6S,8aR Ethyl 6-(((2S)-2-Ethoxycarbonyl)4,4-difluoropyrrolidinyl)methyl)-1,2,3,4,4a,5,6,7,8,8a-decahydroisoquinoline-3-carboxylate.dihydrochloride]
  ID100 (dose that inhibits the extravasation by 100%): approximately 0.01 ng/Kg
